Patent US8889595B2, “Herbicides” (Syngenta Participations AG, priority 2008, dated 2014)

Experiments:
Type in all cases: in vivo
Lolium perenne (LOLPE) [1] = assay: Pre-emergence herbicidal activity, glasshouse; conditions: pre-emergence spray after one day cultivation; rate 250 g/ha; evaluated after 13 days; 100=total damage to plant, 0=no damage to plant
Method: (§1) Seeds of a variety of test species are sown in standard soil in pots. After cultivation for one day (pre-emergence) or after 8 days cultivation (post-emergence) under controlled conditions in a glasshouse (at 24/16° C., day/night; 14 hours light; 65% humidity), the plants are sprayed with an aqueous spray solution derived from the formulation of the technical active ingredient in acetone/water (50:50) solution containing 0.5% Tween 20 (polyoxyethelyene sorbitan monolaurate, CAS RN 9005-64-5). The test plants are then grown in a glasshouse under controlled conditions in a glasshouse (at 24/16° C., day/night; 14 hours light; 65% humidity) and watered twice daily. After 13 days for pre and post-emergence, the test is evaluated (100=total damage to plant; 0=no damage to plant). Test plants: • Lolium perenne (LOLPE), Alopecurus myosuroides (ALOMY), Echinochloa crus-galli (ECHCG), Avena fatua (AVEFA)

Avena fatua (AVEFA) [2] = assay: Pre-emergence herbicidal activity, glasshouse; conditions: pre-emergence spray after one day cultivation; rate 250 g/ha; evaluated after 13 days; 100=total damage to plant, 0=no damage to plant
Method: as §1

[3] = test system: Alopecurus myosuroides (ALOMY); assay: Pre-emergence herbicidal activity, glasshouse; conditions: pre-emergence spray after one day cultivation; rate 250 g/ha; evaluated after 13 days; 100=total damage to plant, 0=no damage to plant
Method: as §1

[4] = test system: Echinochloa crus-galli (ECHCG); assay: Pre-emergence herbicidal activity, glasshouse; conditions: pre-emergence spray after one day cultivation; rate 250 g/ha; evaluated after 13 days; 100=total damage to plant, 0=no damage to plant
Method: as §1

Lolium perenne (LOLPE) [5] = assay: Post-emergence herbicidal activity, glasshouse; conditions: post-emergence spray after 8 days cultivation; rate 250 g/ha; evaluated after 13 days; 100=total damage to plant, 0=no damage to plant
Method: as §1

Avena fatua (AVEFA) [6] = assay: Post-emergence herbicidal activity, glasshouse; conditions: post-emergence spray after 8 days cultivation; rate 250 g/ha; evaluated after 13 days; 100=total damage to plant, 0=no damage to plant
Method: as §1

[7] = test system: Alopecurus myosuroides (ALOMY); assay: Post-emergence herbicidal activity, glasshouse; conditions: post-emergence spray after 8 days cultivation; rate 250 g/ha; evaluated after 13 days; 100=total damage to plant, 0=no damage to plant
Method: as §1

[8] = test system: Echinochloa crus-galli (ECHCG); assay: Post-emergence herbicidal activity, glasshouse; conditions: post-emergence spray after 8 days cultivation; rate 250 g/ha; evaluated after 13 days; 100=total damage to plant, 0=no damage to plant
Method: as §1

Structure (SMILES) | Pre-Emergence Activity LOLPE (Lolium perenne (LOLPE) [1]) | Pre-Emergence Activity AVEFA (Avena fatua (AVEFA) [2]) | Pre-Emergence Activity ALOMY [3] | Pre-Emergence Activity ECHCG [4] | Post-Emergence Activity LOLPE (Lolium perenne (LOLPE) [5]) | Post-Emergence Activity AVEFA (Avena fatua (AVEFA) [6]) | Post-Emergence Activity ALOMY [7] | Post-Emergence Activity ECHCG [8]
COC1=C(c2c(C)cc(C)cc2C)C(=O)C(C(O)c2cc(C)c(C)o2)C1 (centres unmarked) [Compound P1] | 40 | 0 | 0 | 0 | – | – | – | –
Cc1cc(C)c(C2=C(OC(=O)C(C)(C)C)C/C(=C\c3ccoc3)C2=O)c(C)c1 [Compound P2, 2,2-Dimethyl-propionic acid 4-[1-furan-3-yl-meth-(E)-ylidene]-3-oxo-2-(2,4,6-trimethyl-phenyl)-cyclopent-1-enyl ester] | 90 | 0 | 0 | 0 | – | – | – | –
Cc1cc(C)c(C2C(=O)CC(Cc3ccoc3)C2=O)c(C)c1 (centres unmarked) [Compound T2, 4-Furan-3-ylmethyl-2-(2,4,6-trimethyl-phenyl)-cyclopentane-1,3-dione] | 80 | 20 | 30 | 0 | 80 | 20 | 60 | 80
Cc1cc(C)c(C2C(=O)CC(Cc3cc(C)on3)C2=O)c(C)c1 (centres unmarked) [Compound T3, 4-(5-methyl-isoxazol-3-ylmethyl)-2-(2,4,6-trimethyl-phenyl)-cyclopentane-1,3-dione] | 100 | 70 | 100 | 80 | 90 | 80 | 90 | 80
Cc1cc(C)c(C2C(=O)CC(Cc3ccc(C)o3)C2=O)c(C)c1 (centres unmarked) [Compound T4] | – | – | – | – | 50 | 20 | 40 | 30
Cc1cc(C)c(C2C(=O)C/C(=C\c3ccco3)C2=O)c(C)c1 (centres unmarked) [Compound T8] | – | – | – | – | 30 | 0 | 10 | 30
